In one data set the test system is VCAP. As to the kind of experiment: CellTiter-Glo chemiluminescent cell viability assay (CTG method), VCAP. The data set is classed as cell-based. Particulars: VCAP cells, 72 h; for pIC50: read-out: Absolute IC50. The protocol: (§1) Half-maximal inhibitory concentrations (IC50) of abiraterone acetate and LHY-AB614 for proliferation of LNCAP clone FGC and VCAP were assessed by a CellTiter-Glo® chemiluminescent cell viability assay (namely, a CTG method). Cells in an exponential phase were collected, and live cells were counted. Each cell suspension was adjusted with a corresponding medium to an appropriate concentration. 90 μL of a cell suspension was added to each well of a 96-well plate and cultivated in a 37° C. and 5% CO2 incubator for 24 h. A sample to be tested was dissolved in DMSO to prepare a stock solution with a starting concentration of 50 μM, and the stock solution was 3-fold diluted with a medium to obtain 10× working solutions with 9 concentrations. Cisplatin, as a reference compound, was dissolved in DMSO to prepare a stock solution with a starting concentration of 100 μM, and the stock solution was 3-fold diluted with a medium to obtain 10× working solutions with 9 concentrations. 10 μL of a working solution was added to cells in each well, and then the cells were cultivated in a 37° C. and 5% CO2 incubator for 72 h. The 96-well plate was equilibrated at room temperature for about 30 min, then 50 μL of a CTG solution was added to each well, and the 96-well plate was shaken on a microplate shaker for 2 min to perform cell lysis and placed at room temperature for 20 min to stabilize a fluorescence signal. A fluorescence signal value was determined with an Envision2104 plate reader. On the GraphPad Prism software, a nonlinear regression model was used to plot an S-type dose-response curve and calculate an IC50 value.
In general terms: In ATP-based viability assays light output follows the ATP content of the culture.

The test system of a further data set is LNCAP clone FGC. As to the kind of experiment: CellTiter-Glo chemiluminescent cell viability assay (CTG method), LNCAP. The data set is classed as cell-based. The settings on record: LNCAP cells, 72 h; for pIC50: read-out: Absolute IC50. The protocol:
as §1

Data set [1] can be described thus: Comparative study of pharmacokinetic properties in Beagle dogs (oral). Format: in vivo. As to the method:
Four healthy Beagle dogs with body weights in a range of 6 kg to 8 kg were selected. The Beagle dogs were fasted for 12 h the day before an experiment, and all were given a low-fat standard meal after administration. The Beagle dogs should not be administered with other drugs two weeks before the experiment and during the experiment. The four Beagle dogs were randomly divided into a group A and a group B (2 dogs in each group). LHY-AB614 was administered orally at a dose of 46.8 mg/kg (32.2 mg/kg based on abiraterone), and abiraterone acetate was administered orally at a dose of 42.3 mg/kg (37.8 mg/kg based on abiraterone). Blank blood was collected in an EDTA-K2 anticoagulation tube before administration, and at 0.25 h, 0.5 h, 1.0 h, 2.0 h, 4.0 h, 6.0 h, 8.0 h, and 24.0 h after administration, 1 mL of blood was collected in EDTA-K2 anticoagulation tubes. After blood was fully mixed with an anticoagulant, each of the anticoagulation tubes was immediately placed in ice and centrifuged as soon as possible to isolate plasma, and the isolated plasma was stored in labeled EP tubes. 50 μL of a plasma sample was taken, 300 μL of a 10 ng/mL carbamazepine-containing acetonitrile solution was added for protein precipitation, and a resulting mixture was vortexed for 5 min and then centrifuged in a centrifuge at 5,500 g for 10 min; and 100 μL of a resulting supernatant was taken, 300 μL of 50%-methanol water was added for dilution, a resulting dilution was vortexed, and 5 μL of a vortexed dilution was injected. In vivo drug concentrations of LHY-AB614, abiraterone acetate, and abiraterone were determined by HPLC-MS/MS.

For data set [2] the following is noted: cited from earlier work.
The nature of data set [3]: Solubility test in normal saline. The data set is classed as physicochemical. Particulars: saline or isotonic, thermodynamic from solid. As to the method:
200 mg of LHY-AB614-622 was weighed, and 1 mL of normal saline was added.
2 mg of abiraterone acetate was weighed and dissolved in 1 mL of normal saline, a resulting solution was stirred overnight and then subjected to suction filtration, and a resulting filtrate was subjected to HPLC analysis. Abiraterone acetate was dissolved in methanol to prepare a 0.1 mg/mL solution as a control.

The mark [4] stands for this setting: Beagle, dog, in vivo, po, 46.8 mg/kg.

Consider four molecules from patent US12428443B2, “Abiraterone precursor compound and preparation method and use thereof” (SUZHOU AIHE PHARMACEUTICAL TECHNOLOGY CO., LTD., priority 2021, dated 2025).

pIC50: −log10 of the molar value. Where two headings read alike, the source gives them in different places.

In general, pIC50 refers to −log10 of the IC50, conventionally taken in molar units. For orientation: AUC(0-inf) means the area under the concentration-time curve extrapolated to infinity. A low value points to low exposure. The term AUC(0-t) denotes exposure summed from dosing to a finite time, without extrapolation to infinity. Higher therefore signals high exposure. Usually Tmax stands for the time at which the peak concentration occurs. Usually half-life stands for the time needed for the level to fall by half in the phase considered. What is called solubility is how much of the substance goes into solution per volume.

On to `CN(C)CCOCCOC(=O)O[C@H]1CC[C@@]2(C)C(=CC[C@@H]3[C@@H]2CC[C@]2(C)C(c4cccnc4)=CC[C@@H]32)C1` [LHY-AB614], for which the pIC50 in the data set with VCAP (Homo sapiens) is 5.24. The pIC50 in the data set on LNCAP clone FGC (Homo sapiens, LNCaP-Clone-FGC) was 5.49. Further, in data set [1] (Beagle, dog, in vivo, po), the “species detected in vivo after administration” value is “LHY-AB614 and abiraterone both can be detected in vivo”. In data set [1] (setting [4]), this molecule returned an AUC0-inf of 6186 ng·h/mL, an AUC0-t of 6116 ng·h/mL, an AUC(0-inf) of 1060 ng·h/mL and an area under the curve AUC(0-t) of 908 ng·h/mL. Besides, in data set [1] (setting [4]), the “Cls, app” value was 757; the T1/2 is 3.7 h; the time of peak concentration (Tmax) was found to be 1.5 h; the half-life was 6.8 h. In data set [1] (dog, in vivo, po), the “AUC compared with the administration of abiraterone acetate” value was “significantly increases”, the “Cmax of abiraterone compared with Cmax of LHY-AB614” value was “much higher”, the “Cmax of abiraterone compared with the administration of abiraterone acetate” value is recorded as “significantly increases” and the “Tmax compared with the administration of abiraterone acetate” value is given as “does not change”.
Turning to `N.N.[Cl][Pt][Cl]` [Cisplatin], in the data set on VCAP, the Max inhibition is 85.02% and the negative logarithm of the IC50 (pIC50) is 4.39. In the data set on LNCAP clone FGC, the Max inhibition came to 97.49% and the negative-log IC50 (pIC50) was 4.89.
For `CC(=O)O[C@H]1CC[C@@]2(C)C(=CC[C@@H]3[C@@H]2CC[C@]2(C)C(c4cccnc4)=CC[C@@H]32)C1` [Abiraterone acetate, abiraterone acetate], the negative-log IC50 (pIC50) in the data set with VCAP (Homo sapiens) is less than 4.30; with LNCAP clone FGC (Homo sapiens, LNCaP-Clone-FGC) it was 4.81. Also, the Max inhibition turned out to be 29.43% with VCAP and 78.30% in the data set with LNCAP clone FGC. The “species detected in vivo after administration” value in data set [1] (oral, Beagle dogs, plasma, HPLC-MS/MS) was “Only abiraterone is detected in vivo”. In addition, the death risk reduced in data set [2] (combination with prednisone versus placebo and prednisone) was 35%. Besides, the “median survival time prolonged versus placebo and prednisone” value in data set [2] (combination with prednisone, p<0.0001) was 3.9 months. Moreover, in data set [2] (patient treated with a combination of abiraterone acetate and prednisone), the median survival time is given as 14.8 months. The molecule also registered a solubility in data set [3] of less than 100 µg/mL.
Consider `CN(C)CCOCCOC(=O)O[C@H]1CC[C@@]2(C)C(=CC[C@@H]3[C@@H]2CC[C@]2(C)C(c4cccnc4)=CC[C@@H]32)C1` [Compound represented by formula I], for which the negative-log IC50 (pIC50) was 5.24 in the data set on VCAP (Homo sapiens) and 5.49 with LNCAP clone FGC (Homo sapiens, LNCaP-Clone-FGC). Besides, the Max inhibition was 99.31% in the data set with VCAP and 99.49% in the data set on LNCAP clone FGC.
